Biological target: T1, IRAK4 (Homo sapiens, UniProt Q9NWZ3)
T1 construct: endogenous in cells; host or cells: OCI-LY10
T1 sequence (Q9NWZ3 1-460): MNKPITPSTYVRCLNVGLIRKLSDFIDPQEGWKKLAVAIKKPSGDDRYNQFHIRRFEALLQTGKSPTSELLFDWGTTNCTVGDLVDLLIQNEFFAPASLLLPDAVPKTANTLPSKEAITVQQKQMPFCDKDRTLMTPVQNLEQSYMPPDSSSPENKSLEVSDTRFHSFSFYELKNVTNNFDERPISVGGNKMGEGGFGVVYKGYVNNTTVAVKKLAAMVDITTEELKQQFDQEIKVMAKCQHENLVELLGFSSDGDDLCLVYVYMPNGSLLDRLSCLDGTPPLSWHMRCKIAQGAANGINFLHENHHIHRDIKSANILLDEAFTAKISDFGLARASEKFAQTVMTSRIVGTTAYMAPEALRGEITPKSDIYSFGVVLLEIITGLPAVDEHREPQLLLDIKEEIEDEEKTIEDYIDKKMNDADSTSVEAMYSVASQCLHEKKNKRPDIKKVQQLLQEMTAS
Test: IRAK4 MSD Degradation in OCI-LY10
Type: cell-based
Conditions: OCI-LY10 cells, Meso Scale Discovery, incubated 4 to 24 hours
In short: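 IRAK4 degradation was quantified by Meso Scale electrochemiluminescence (anti-IRAK4 capture and detection antibodies) in lysates of treated OCI-LY10 cells. Compounds were dosed at 8 concentrations (1:3 dilutions, top 1 to 10 μM) for 4 to 24 h; DC50 derived by three-parameter logistic fitting.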

Compound | DC50
Cn1c(=O)n(C2CCC(=O)NC2=O)c2cccc(C3CCN(C[C@H]4CC[C@H](n5cc6cc(NC(=O)c7cccc(C(F)(F)F)n7)ccc6n5)CC4)CC3)c21 (stereo partly shown) [I-57] | < 10 nM
CN(C[C@H]1CC[C@H](n2cc3cc(NC(=O)c4cccc(C(F)(F)F)n4)ccc3n2)CC1)C1CCN(c2cccc3c2n(C)c(=O)n3C2CCC(=O)NC2=O)CC1 (stereo partly shown) [I-58] | < 10 nM
COc1cc2nn([C@H]3CC[C@H](CN(C)C4CCN(c5cccc6c5n(C)c(=O)n6C5CCC(=O)NC5=O)CC4)CC3)cc2cc1NC(=O)n1ccc2cccnc21 (stereo partly shown) [I-113] | < 10 nM
Cc1ccc2c(c1C1CCN(C[C@H]3C[C@H](n4cc5cc(NC(=O)c6cccc(C(F)(F)F)n6)ccc5n4)C3)CC1)n(C)c(=O)n2C1CCC(=O)NC1=O (stereo partly shown) [I-148] | 100 to 200 nM
C[C@@H]1CN(c2cccc3c2n(C)c(=O)n3C2CCC(=O)NC2=O)CCN1C[C@H]1CC[C@H](n2cc3cc(NC(=O)c4cccc(C(F)(F)F)n4)c(C(C)(C)O)cc3n2)CC1 (stereo partly shown) [I-226] | < 10 nM
Cn1c(=O)n(C2CCC(=O)NC2=O)c2cccc(C3CCN(C[C@H]4C[C@H](n5cc6cc(NC(=O)c7cccc(C(F)(F)F)n7)c(F)cc6n5)C4)CC3)c21 (stereo partly shown) [I-30] | 10 to 50 nM
Cn1c(=O)n(C2CCC(=O)NC2=O)c2ccc(F)c(C3CCN(C[C@H]4CC[C@H](n5cc6cc(NC(=O)c7cccc(C(F)(F)F)n7)ncc6n5)CC4)CC3)c21 (stereo partly shown) [I-82] | < 10 nM
Cn1c(=O)n(C2CCC(=O)NC2=O)c2ccc(Cl)c(C3CCN(C[C@H]4CC[C@H](n5cc6cc(NC(=O)c7cccc(C(F)(F)F)n7)ncc6n5)CC4)CC3)c21 (stereo partly shown) [I-88] | 10 to 50 nM
N#Cc1cnc2c(C(=O)Nc3ccc4nn([C@H]5CC[C@H](CN6CCC(c7cccc8c(N9CCC(=O)NC9=O)cncc78)CC6)CC5)cc4c3)cnn2c1 [I-204, 6-Cyano-N-[2-[4-[[4-[4-(2,4-dioxohexahydropyrimidin-1-yl)-8-isoquinolyl]-1-piperidyl]methyl]cyclohexyl]indazol-5-yl]pyrazolo[1,5-a]pyrimidine-3-carboxamide] | 10 to 50 nM
Cn1c(=O)n(C2CCC(=O)NC2=O)c2ccc(Cl)c(C3CCN(C[C@H]4C[C@H](n5cc6cc(NC(=O)c7cccc(C(F)(F)F)n7)ccc6n5)C4)CC3)c21 (stereo partly shown) [I-150] | 100 to 200 nM
Cn1c(=O)n(C2CCC(=O)NC2=O)c2ccc(F)c(C3CCN(C[C@H]4CC[C@H](n5cc6cc(NC(=O)c7cccc(C(F)(F)F)n7)ccc6n5)CC4)CC3)c21 (stereo partly shown) [I-74] | 10 to 50 nM
COc1cc2nn([C@H]3CC[C@H](CN4CCC(c5cccc6c5n(C)c(=O)n6C5CCC(=O)NC5=O)CC4)CC3)cc2cc1NC(=O)c1ccccc1F (stereo partly shown) [I-174] | < 10 nM
COc1cc2nn([C@H]3CC[C@H](CN4CCC(c5cccc6c5n(C)c(=O)n6C5CCC(=O)NC5=O)CC4)CC3)cc2cc1NC(=O)c1cncc(Cl)c1 (stereo partly shown) [I-196] | < 10 nM
COc1cc2nn([C@H]3CC[C@@H](CN4CC5(CC(CCNc6cccc7c6C(=O)N(C6CCC(=O)NC6=O)C7=O)C5)C4)CC3)cc2cc1NC(=O)c1cccc(C(C)(F)F)n1 (stereo partly shown) [I-11, 6-(1,1-Difluoroethyl)-N-[2-[4-[[6-[2-[[2-(2,6-dioxo-3-piperidyl)-1,3-dioxo-isoindolin-4-yl]amino]ethyl]-2-azaspiro[3.3]heptan-2-yl]methyl]cyclohexyl]-6-methoxy-indazol-5-yl]pyridine-2-carboxamide] | 50 to 100 nM
COc1cc2nn([C@H]3CC[C@H](CN(C)[C@H]4CC[C@@H](c5cccc6c5n(C)c(=O)n6C5CCC(=O)NC5=O)CC4)CC3)cc2cc1NC(=O)c1cccc(C(F)(F)F)n1 (stereo partly shown) [I-6, N-[2-[4-[[[4-[1-(2,6-dioxo-3-piperidyl)-3-methyl-2-oxo-benzimidazol-4-yl]cyclohexyl]-methyl-amino]methyl]cyclohexyl]-6-methoxy-indazol-5-yl]-6-(trifluoromethyl)pyridine-2-carboxamide] | < 10 nM
COc1cc2nn([C@H]3CC[C@H](CN4CCC(c5c(OC)ccc6c5n(C)c(=O)n6C5CCC(=O)NC5=O)CC4)CC3)cc2cc1NC(=O)c1cccc(C(F)(F)F)n1 (stereo partly shown) [I-48] | < 10 nM
CN(C[C@H]1CC[C@H](n2cc3cc(NC(=O)c4cncc(C#N)c4)c(N4C[C@H]5C[C@@H]4CO5)cc3n2)CC1)C1CCN(c2cccc3c2n(C)c(=O)n3C2CCC(=O)NC2=O)CC1 (stereo partly shown) [I-217] | > 200 nM
Cc1cc(C2CCN(C[C@H]3CC[C@H](n4cc5cc(NC(=O)c6cccc(C(F)(F)F)n6)c(F)cc5n4)CC3)CC2)c2c(c1)n(C1CCC(=O)NC1=O)c(=O)n2C (stereo partly shown) [I-23] | 100 to 200 nM
CC(C)(O)c1cc2nc([C@H]3CC[C@H](CN4CC5(CC(CCNc6cccc7c6C(=O)N(C6CCC(=O)NC6=O)C7=O)C5)C4)CC3)cn2cc1NC(=O)c1cccc(C(F)(F)F)n1 (stereo partly shown) [I-12] | 10 to 50 nM
COc1cc2nn([C@H]3CC[C@H](CN4CCC(c5c(F)ccc6c5n(C)c(=O)n6C5CCC(=O)NC5=O)CC4)CC3)cc2cc1NC(=O)c1cccc(C(F)(F)F)n1 (stereo partly shown) [I-101] | < 10 nM
COc1cc2nc([C@H]3CC[C@H](CN4CCC(c5cccc6c(N7CCC(=O)NC7=O)cncc56)CC4)CC3)sc2cc1NC(=O)c1cccc(C(F)(F)F)n1 [I-191] | 10 to 50 nM

More lines, now with the values ahead:

DC50 | Compound
< 10 nM | COc1cc2nn([C@H]3CC[C@H](CN4CCN(c5c(OC)ccc6c5n(C)c(=O)n6C5CCC(=O)NC5=O)CC4)CC3)cc2cc1NC(=O)c1cccc(C(F)(F)F)n1 (stereo partly shown) [I-364]
> 200 nM | CN(CCCNc1cccc2c1C(=O)N(C1CCC(=O)NC1=O)C2=O)C[C@H]1CC[C@H](c2nc3cc(C(C)(C)O)c(NC(=O)c4cccc(C(F)(F)F)n4)cc3s2)CC1 (stereo partly shown) [I-490]
< 10 nM | COc1cc2nn([C@H]3CC[C@H](CN4CCC(c5ccc6c(N7CCC(=O)NC7=O)cncc6c5)CC4)CC3)cc2cc1NC(=O)c1cccc(C(F)(F)F)n1 [I-322]
10 to 50 nM | CN(C)c1cc2nn([C@H]3CC[C@H](CN4CCN(c5cccc6c5n(C)c(=O)n6C5CCC(=O)NC5=O)CC4)CC3)cc2cc1NC(=O)c1cccc(C(F)(F)F)n1 (stereo partly shown) [I-388]
50 to 100 nM | COc1cc2nc([C@H]3CC[C@H](C(=O)N4CCN(CCCNc5cccc6c5C(=O)N(C5CCC(=O)NC5=O)C6=O)CC4)CC3)sc2cc1NC(=O)c1cccc(C(F)(F)F)n1 (stereo partly shown) [I-466]
< 10 nM | C[C@@H]1CN(c2cccc3c(N4CCC(=O)NC4=O)cncc23)CCN1C[C@H]1CC[C@H](n2cc3cc(NC(=O)c4cccc(C(F)(F)F)n4)c(C(C)(C)O)cc3n2)CC1 [I-230]
> 200 nM | Cc1cc2nn([C@H]3CC[C@H](CN4CCC(c5cccc6c5n(C)c(=O)n6C5CCC(=O)N(C)C5=O)CC4)CC3)cc2cc1NC(=O)c1cccc(C(F)(F)F)n1 (stereo partly shown) [I-403]
< 10 nM | Cc1cc2nn([C@H]3CC[C@H](CN4C5CCC4CN(c4cccc6c4n(C)c(=O)n6C4CCC(=O)NC4=O)C5)CC3)cc2cc1NC(=O)c1cccc(C(F)(F)F)n1 (stereo partly shown) [I-398]
< 10 nM | Cc1cc2nn([C@H]3CC[C@H](CN4CCN(c5cccc6c5n(C)c(=O)n6[C@@H]5CCC(=O)NC5=O)CC4)CC3)cc2cc1NC(=O)c1cccc(C(F)(F)F)n1 [I-400, N-[2-[4-[[4-[1-[(3R)-2,6-dioxo-3-piperidyl]-3-methyl-2-oxo-benzimidazol-4-yl]piperazin-1-yl]methyl]cyclohexyl]-6-methyl-indazol-5-yl]-6-(trifluoromethyl)pyridine-2-carboxamide]
10 to 50 nM | Cn1c(=O)n(C2CCC(=O)NC2=O)c2cccc(N3CCN(C[C@H]4CC[C@H](n5cc6cc(NC(=O)c7cccc(C(F)(F)F)n7)c(Cl)cc6n5)CC4)CC3)c21 (stereo partly shown) [I-360]
100 to 200 nM | CC(C)(O)c1cc2nc([C@H]3CC[C@H](C(=O)N4CCC5(CC4)CC(CCNc4cccc6c4C(=O)N(C4CCC(=O)NC4=O)C6=O)C5)CC3)sc2cc1NC(=O)c1cccc(C(F)(F)F)n1 (stereo partly shown) [I-486]
10 to 50 nM | COc1cc2nc([C@H]3CC[C@H](CN(C)CCCCNc4cccc5c4C(=O)N(C4CCC(=O)NC4=O)C5=O)CC3)sc2cc1NC(=O)c1cccc(C(F)(F)F)n1 (stereo partly shown) [I-446]
10 to 50 nM | Cn1c(=O)n(C2CCC(=O)NC2=O)c2cccc(N3CCN(C[C@H]4CC[C@H](n5cc6cc(NC(=O)c7cccc(C(F)(F)F)n7)c(C(=O)O)cc6n5)CC4)CC3)c21 (stereo partly shown) [I-415, 2-[4-[[4-[1-(2,6-dioxo-3-piperidyl)-3-methyl-2-oxo-benzimidazol-4-yl]piperazin-1-yl]methyl]cyclohexyl]-5-[[6-(trifluoromethyl)pyridine-2-carbonyl]amino]indazole-6-carboxylic acid]
< 10 nM | CC(C)(N)c1cc2nn([C@H]3CC[C@H](CN4C5CCC4CN(c4cccc6c(N7CCC(=O)NC7=O)cncc46)C5)CC3)cc2cc1NC(=O)c1cccc(C(F)(F)F)n1 [I-227]
10 to 50 nM | Cc1cccc(C(=O)Nc2cc3sc([C@H]4CC[C@H](CN5CCN(CCCNc6cccc7c6C(=O)N(C6CCC(=O)NC6=O)C7=O)[C@H](C)C5)CC4)nc3cc2C(C)(C)O)n1 (stereo partly shown) [I-452]
10 to 50 nM | N#Cc1cc2nn([C@H]3CC[C@H](CN4CCN(c5cccc6c(N7CCC(=O)NC7=O)cncc56)CC4)CC3)cc2cc1NC(=O)c1cccc(C(F)(F)F)n1 [I-288]
< 10 nM | COc1cc2nn([C@H]3CC[C@H](CN4CCN(c5cccc6c(N7CCC(=O)NC7=O)ccnc56)CC4)CC3)cc2cc1NC(=O)c1cccc(C(F)(F)F)n1 [I-382]
10 to 50 nM | Cc1cc2nn([C@H]3CC[C@H](CN4CCN(c5cccc6c5n(C)c(=O)n6C5CCC(=O)NC5=O)CC4(C)C)CC3)cc2cc1NC(=O)c1cccc(C(F)(F)F)n1 (stereo partly shown) [I-305]
50 to 100 nM | CC(C)(O)c1cc2nc([C@H]3CC[C@H](C(=O)N4CCN(CCNc5cccc6c5C(=O)N(C5CCC(=O)NC5=O)C6=O)CC4)CC3)sc2cc1NC(=O)c1cccc(C#N)n1 (stereo partly shown) [I-434]

From patent US12150995B2, “IRAK degraders and uses thereof” (Kymera Therapeutics, Inc., priority 2020, dated 2024)
